This is an account of results in PubChem BioAssay AID858 (Vanderbilt High Throughput Screening Facility, 2007).

Calls of active or inactive are those of the source.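 Rule for the calls: active = at least two of three replicate dose series yielding a converging curve fit, whether well or thinly supported; inactive = the rest.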

The target in this assay is D(1A) dopamine receptor (Homo sapiens) (UniProt P21728). Kind of assay: concentration-dependent D1 reporter signal change – cell-based, CRE-luciferase, HEK293, dopamine EC30, D1 allosteric modulator project, dose response (AID 858).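 Note: HEK 293 cells bearing human D1 receptor stimulated by dopamine at its EC30; luciferase light from a cAMP response element reporter gene.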
Chain of D(1A) dopamine receptor (Homo sapiens) (P21728 whole entry, looked up): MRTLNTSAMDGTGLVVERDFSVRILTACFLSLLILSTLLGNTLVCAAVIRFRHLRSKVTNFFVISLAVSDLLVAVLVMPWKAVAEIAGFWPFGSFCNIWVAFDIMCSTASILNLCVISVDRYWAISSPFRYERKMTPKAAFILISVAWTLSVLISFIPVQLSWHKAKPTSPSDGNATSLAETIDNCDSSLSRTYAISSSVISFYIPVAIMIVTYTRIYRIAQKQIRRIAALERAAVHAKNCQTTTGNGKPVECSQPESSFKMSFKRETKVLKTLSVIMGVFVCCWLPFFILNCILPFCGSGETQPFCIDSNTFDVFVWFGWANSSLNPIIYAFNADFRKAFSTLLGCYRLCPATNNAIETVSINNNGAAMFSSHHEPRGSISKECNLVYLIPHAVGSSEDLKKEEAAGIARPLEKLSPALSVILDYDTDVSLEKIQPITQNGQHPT
Turning to `CCOC(=O)C(C)Oc1cccc2c(=O)n(CC(=O)NCc3ccco3)ccc12` (centres undefined), the result was inactive.

Usually EC50 stands for the concentration giving half of the maximal effect. For `CCCC(=O)Nc1ccc(NC(=O)C2CC2)cn1`, the EC50 was 22.4 nM.

In the case of `C/C(CCc1oc2ccccc2c1-c1ccc(C)o1)=N/O`, the result was inactive.

In the case of `COc1cc2c(cc1OC)C(C(=O)Nc1ccc3c(c1)OCCO3)C1c3ccccc3CCN1C2=O` (centres undefined), the outcome was inactive.

`c1ccc(COc2nsnc2N2CCOCC2)cc1`: the result was inactive.

On to `Cc1[nH]n(-c2ccccc2)c(=O)c1S(=O)(=O)c1ccccc1`, for which the result was inactive.

As to `COC(=O)c1c(-c2ccc(F)cc2)csc1NC(=O)c1ccco1`, the outcome was inactive.

`CCC(=O)NC(=Nc1nc2ccccc2s1)NC(=O)CC`: the outcome was inactive.

Consider `CCOC(=O)c1ccc(Oc2cc(C)nc(SC)n2)cc1`, for which the outcome was inactive.

Regarding `Brc1ccc(-c2nn3c(Cc4ccccc4)nnc3s2)o1`, the result was inactive.

In the case of `COc1ccc(-c2noc(CCN3C(=O)c4ccccc4C3=O)n2)cc1OC`, the EC50 was 309 nM.

For the compound `CCOC(=O)NCCc1ccc(OC)cc1`, the result was inactive.

As to `O=C(OCC#CCSc1nnc(-c2ccc(Br)cc2)o1)c1ccco1`, the outcome was inactive.

On to `CCCSc1nsc(SCCC)c1C(N)=O`, for which the result was inactive.

`N#Cc1cnn(Cc2ccccc2)c1/N=C/N1CCOCC1`: the result was inactive.

On to `CCn1c(SCC(=O)Nc2ccccc2N2CCCCC2)nc2c1c(=O)n(C)c(=O)n2C`, for which the outcome was inactive.

Regarding `CCC(=O)n1nc(-c2ccco2)nc1N`, the outcome was inactive.

As to `CC(C)Cc1nc(N2CCN(C(=O)C(C)C)CC2)c(C#N)c2c1CCC2`, the outcome was inactive.

Consider `COc1ccc(OC)c(C(=O)COC(=O)C2CC3CCCC(C2)C3=O)c1` (centres undefined), for which the result was inactive.

On to `CCCCn1c2nc3ccccc3nc2c2c(=O)n(C(C)CC)cnc21` (centres undefined), for which the outcome was inactive.

`COc1ccc(-c2csc3nc(C)n(-n4cccc4)c(=O)c23)cc1OC`: the outcome was inactive.

On to `COc1c(S(=O)(=O)n2nc(C)cc2C)ccc(Cl)c1Cl`, for which the result was inactive.

Regarding `CC(C)C1N=C2c3ccccc3N=C(SCC#N)N2C1=O` (centres undefined), the EC50 is 3140 nM.

Take `CCn1c(=O)c(C(=O)NCc2cccnc2)c(O)c2ccccc21`: the result was inactive.

With `CCOC(=O)c1c(-c2ccsc2)csc1N`, the outcome was inactive.

Take `N#Cc1nc(-c2ccccc2Cl)oc1N1CCOCC1`: the result was inactive.

For the compound `Cc1cccc(-c2c3c(=O)n(C)c(=O)n(C)c3cn2-c2ccccc2O)c1`, the outcome was inactive.

For `NC(=O)CSc1nc2scc(-c3ccco3)c2c(=O)n1-c1ccccc1`, the EC50 was 1630 nM.

Regarding `CCOC(=O)c1cc2c(=O)n3ccccc3nc2n(CCCOC)c1=NC(=O)C(C)(C)C`, the outcome was inactive.

Consider `O=c1nc2scc(-c3ccccc3)n2c2ccccc12`, for which the outcome was inactive.

As for `CCC(Sc1nc(=O)cc(N)n1CCc1ccccc1)C(=O)Nc1ccccc1C#N` (centres undefined), the result was inactive.

In the case of `Cc1cc(=O)n(CC=C(Cl)Cl)c2ccccc12`, the result was inactive.

Turning to `Clc1ccc(-n2nnnc2-c2ccccc2)cc1`, the result was inactive.

In the case of `CC(C)C1C2=C(CC(C)(C)CC2=O)ON1c1ccccc1` (centres undefined), the outcome was inactive.

Take `O=CN1Cc2[nH]c3ccccc3c2N(c2ccc(Cl)cc2)C1=O`: the result was inactive.

As for `Nc1nc2n(n1)C(c1ccco1)CC(c1ccc(F)cc1)N2` (centres undefined), the result was inactive.

In the case of `CCOC(=O)c1c(C)c(C(=O)NCc2ccccc2OC)c(C)n1C`, the result was inactive.

On to `Nc1nc(SCc2ccc3c(c2)OCCO3)n[nH]1`, for which the outcome was inactive.

Take `C=C(C)CSc1nc2c(cc1C#N)CCC2`: the result was inactive.

Consider `CCOC(=O)N1CCN(C(=O)C(C)(C)Oc2ccc(Cl)cc2)CC1`, for which the outcome was inactive.

For the compound `Cc1c(C(=O)OCC(C)C)[nH]c2c1C(=O)CC(c1ccco1)C2` (centres undefined), the EC50 is 1570 nM.

Regarding `CCN(CCCNC(=O)CN(C)S(=O)(=O)c1cccc2nsnc12)c1cccc(C)c1`, the outcome was inactive.

In the case of `CNc1nc(C)c(C(=O)OCC(=O)OC)s1`, the outcome was inactive.

As to `CSc1nc2oc3c(c2c2nncn12)CC(C)(C)SC3`, the result was inactive.

Take `C1CCC(c2nn3c(-c4n[nH]c5c4CCC5)nnc3s2)CC1`: the concentration giving a half-maximal response (EC50) is 1140 nM.

With `CSc1nc2c(c(=O)n1-c1ccccc1)SCC2`, the outcome was inactive.

Take `c1csc(-c2nn3c(Cn4nnc5ccccc54)nnc3s2)c1`: the outcome was inactive.

`CCOc1ccc(CC(=O)Nc2c(C(N)=O)oc3ccccc23)cc1OCC`: the outcome was inactive.

As to `CC(=O)C1=C(C)NC(SCC(=O)c2ccc(F)cc2)=C(C#N)C1c1ccco1` (centres undefined), the result was inactive.

With `c1ccc(Nc2nc3ccccc3n3cnnc23)cc1`, the outcome was inactive.

For the compound `CCC(C)Sc1nc2c(c(=O)n1C)SC(C)C2` (centres undefined), the result was inactive.

As for `CS(=O)(=O)c1sc2nc(-c3cccs3)cc(-c3ccccc3)c2c1N`, the outcome was inactive.

Turning to `CCCCn1c(=O)c(C(=O)Nc2cnccn2)c(O)c2ccccc21`, the result was inactive.

Consider `Cc1ccc(Nc2nnc(SCc3cc(=O)n4ccsc4n3)s2)c(C)c1`, for which the result was inactive.

For the compound `CCc1nc2sc3ccccc3c(=O)c2c(=O)n1Cc1ccco1`, the result was inactive.

For the compound `O=C(CCSc1nc2ccccc2o1)N1CCOCC1`, the result was inactive.

As to `Cc1cc(=O)oc2cc(OCC(=O)NCCc3nc4ccccc4[nH]3)ccc12`, the outcome was inactive.

Regarding `CSC1=NCCN1C(=O)Cc1cccs1`, the result was inactive.

In the case of `CCOC(=O)N1CCC(N2Cc3cccc(C(=O)NC(C)c4ccc5c(c4)OCCO5)c3C2=O)CC1` (centres undefined), the outcome was inactive.

As to `Cn1cnc2c1c(=O)n(Cc1ccc(F)cc1Cl)c(=O)n2C`, the result was inactive.

As for `CCOC(=O)Cc1[nH]nc2c1C(c1cccc(OC)c1OC)C(C#N)=C(N)O2` (centres undefined), the result was inactive.

Take `CCOC(=O)CSc1nc2c(sc(=S)n2Cc2ccco2)c(=O)n1-c1ccccc1`: the result was inactive.

Turning to `COc1ccc(C2CC(=O)Nc3ccccc3S2(=O)=O)cc1OC` (centres undefined), the result was inactive.

Turning to `O=C1COc2ccccc2N1Cc1ccccc1Cl`, the result was inactive.

Turning to `Cc1ccc(Cn2c(-n3nc(C)cc3C)nc3c2c(=O)[nH]c(=O)n3C)cc1`, the outcome was inactive.

Consider `Cc1noc(C)c1S(=O)(=O)N1CCCC(C(=O)NCc2ccccn2)C1` (centres undefined), for which the result was inactive.

For `O=C(NCc1cccs1)C1CC(c2ccccc2O)=NO1` (centres undefined), the outcome was inactive.

In the case of `CCOC(=O)c1nc(-c2ccccc2)oc1N(C)C`, the result was inactive.

Consider `Cc1cc(=O)c2n(Cc3ccc(Cl)cc3)nc[n+]2[nH]1`, for which the outcome was inactive.

`CCCn1c(=NC(C)=O)c(C(=O)OCC)cc2c(=O)n3ccccc3nc21`: the outcome was inactive.

For `NC(=O)c1c(NC(=O)CSc2nnc(-c3ccco3)n2-c2ccccc2)sc2c1CCC2`, the result was inactive.

Take `COc1ncnc2c1N=C1CC(C)(C)CC(N)=C1S2`: the outcome was inactive.

In the case of `Cc1cc(C)n(CC(=O)n2c3c(c4ccccc42)CCCC3)n1`, the result was inactive.

Take `Cn1c(=O)c2c(nc(SCCCO)n2Cc2ccccc2Cl)n(C)c1=O`: the outcome was inactive.

As to `Clc1ccccc1Cn1nnc2c(N3CCCC3)ncnc21`, the outcome was inactive.

Turning to `N#Cc1cc2ccccc2nc1SCC(=O)Nc1ccc(S(=O)(=O)N2CCCC2)cc1`, the result was inactive.

As to `O=C1CSc2ccccc2N1Cc1ccccc1F`, the outcome was inactive.

Consider `Cn1c(=O)c2c(-c3ccccc3)n(N3CCOCC3)cc2n(C)c1=O`, for which the outcome was inactive.

For the compound `COc1ncnc2c1N[C@@](C)(O)c1c(F)c(F)c(F)c(F)c1S2`, the result was inactive.

Take `Nc1nc(CN2CCN(c3ccccn3)CC2)nc(Nc2ccc(Cl)cc2)n1`: the result was inactive.

Turning to `Cc1csc2c(C#N)c(=O)c3c(n12)CCC3`, the outcome was inactive.

Regarding `COc1ccc(OC)c(C2C=C(c3ccc(C)c(C)c3)Nc3nnnn32)c1` (centres undefined), the result was inactive.

With `COC(=O)c1sc2ccccc2c1C(=O)OC`, the outcome was inactive.

As for `C=CCNC(=O)C1CC(c2cccc(OC)c2)=NO1` (centres undefined), the result was inactive.

For the compound `CC(=O)c1cc(C#N)c(SCc2ccncc2)nc1C`, the outcome was inactive.

Regarding `Cc1cc(NC(=O)COc2nnc(-c3ccccc3)c3ccccc23)no1`, the outcome was inactive.

Take `COc1ccc(Cn2nnc3c(=O)[nH]c(C4CCCN(C(=O)c5ccccc5)C4)nc32)cc1` (centres undefined): the outcome was inactive.

As for `Cn1c(=O)c2c(-c3ccc(C(C)(C)C)cc3)n(N3CCOCC3)cc2n(C)c1=O`, the result was inactive.

In the case of `Fc1cc(Br)ccc1Nc1nc2ccccc2n2nnnc12`, the outcome was inactive.

As for `CCOC(=O)CCSc1nc(C)c2ccccc2n1`, the result was inactive.

On to `CCc1nc(N2CCCCC2)c2oc3ccccc3c2n1`, for which the result was inactive.

With `CNc1nc(C)c(C#N)c(-c2ccccc2)c1C(C)=O`, the concentration giving a half-maximal response (EC50) is 2330 nM.

For `CSc1ccc(C2C(C#N)=C(N)N(c3ccccc3)C3=C2C(=O)CCC3)cc1` (centres undefined), the outcome was inactive.

As to `COCCNc1oc(-c2ccc(C)cc2)nc1C#N`, the outcome was inactive.

Consider `CC(C)OC(=O)CSc1nnc(-c2cnccn2)n1-c1ccc(Cl)cc1`, for which the outcome was inactive.

`Clc1cccc(Nc2c3c(nc4ncnn24)CCC3)c1`: the outcome was inactive.

With `COCCCNc1c2c3c(cccc3[nH]c1=O)C(=O)c1ccccc1-2`, the outcome was inactive.

Regarding `O=C(OCCCCN1C(=O)c2ccccc2C1=O)c1n[nH]c2ccccc12`, the result was inactive.

With `O=C1C(Cl)=C(NCC2CCCO2)C(=O)N1C1CCCCC1` (centres undefined), the outcome was inactive.
